Paper PMC11048155, “Antiviral Drug Candidate Repositioning for Streptococcus suis Infection in Non-Tumorigenic Cell Models” (Biomedicines, 2024)
Values after ≈ are worked out from the molar mass of the structure shown. “Also recorded” adds a separate entry of the source.

Key:
[1] = system: Pseudomonas (P.) aeruginosa (ATCC 27853); experiment: MIC measurement (broth microdilution); assay type: cell-based; conditions: source ATCC, 18–24 h at 37 °C
[2] = system: Enterococcus (E.) faecalis (clinical isolate); experiment: MIC measurement (broth microdilution); assay type: cell-based; conditions: Enterococcus; E. fecalis, source 442; 18–24 h at 37 °C; read-out: MIC
[3] = system: Staphylococcus (S.) aureus (ATCC 10832); experiment: MIC measurement (broth microdilution); assay type: cell-based; conditions: source ATCC, 18–24 h at 37 °C, read-out: MIC
IPEC-J2 cells [4] = experiment: Cell viability, Neutral red assay; assay type: cell-based, porcine; conditions: IPEC-J2, S. suis 10^4 CFU/mL in combination with inhibitor 50 µM, 24 h
Description: The IPEC-J2 cell line is unique as it is non-transformed and non-tumorigenic. IPEC-J2 cells are derived from intestinal enterocytes extracted from the jejunum of neonatal unsuckled piglets. IPEC-J2 cells were gifted by Dr. Jody Gookin (Department of Clinical Sciences, College of Veterinary Medicine, North Carolina State University, Raleigh, NC, USA). […] The cells had undergone passage around 50 times. […] This experiment included plain DMEM/F12 medium as a control. At the end of the final treatments (24 h), the ratio of viable cells was measured by absorbance at 540 nm wavelength with a SpectraMax iD3 microplate reader.

CYP2C19 = biological target: T1, CYP2C19 (Homo sapiens, UniProt P33261); experiment: CYP enzyme fluorometric activity measurement, human hepatic microsomes; assay type: in vitro ADME; conditions: inhibitor 50 µM, 15 min, p > 0.05
T1 construct: Human hepatic microsomal supernatants were prepared; tissue Gibco; host or cells: human liver microsomes
T1 sequence (P33261 whole entry): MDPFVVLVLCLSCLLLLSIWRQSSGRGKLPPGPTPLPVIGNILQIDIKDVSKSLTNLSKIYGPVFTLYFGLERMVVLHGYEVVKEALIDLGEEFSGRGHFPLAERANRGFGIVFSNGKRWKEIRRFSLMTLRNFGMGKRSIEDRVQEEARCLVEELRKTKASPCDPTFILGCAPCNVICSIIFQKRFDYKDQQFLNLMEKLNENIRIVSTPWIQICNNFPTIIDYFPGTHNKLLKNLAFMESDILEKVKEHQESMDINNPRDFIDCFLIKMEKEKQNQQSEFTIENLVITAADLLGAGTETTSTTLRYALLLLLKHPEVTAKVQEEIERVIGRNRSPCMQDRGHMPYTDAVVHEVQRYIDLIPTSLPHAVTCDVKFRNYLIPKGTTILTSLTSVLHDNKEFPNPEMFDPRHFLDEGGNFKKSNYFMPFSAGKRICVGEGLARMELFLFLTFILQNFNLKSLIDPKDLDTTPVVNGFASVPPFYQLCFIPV
Procedure: The Biovision CYP assays (BioVision, Inc., Kampenhout, Belgium) employ non-fluorescent CYP2D6, 2C9, 2C19, 1A2, or 3A4 substrates able to undergo transformation into highly fluorescent detectable metabolites. […] Human hepatic microsomal supernatants were prepared (Gibco, Biocentre, Szeged, Hungary protein concentration: 20 mg/mL) separately by mixing 30 µL with 2425 µL assay buffer and with 50 µL nicotinamide adenine dinucleotide phosphate (NADPH) generating system (100×). […] Control measurements were performed in the absence of the inhibitors.
In background controls, only assay buffer excluding microsomes and test compounds was used in a volume of 70 µL. Subsequently, after incubation at 37 °C for 15 min, 30 µL of the suitable CYP substrate/NADP+ mixture was incorporated into each well, resulting in a final reaction volume of 100 µL/well. The obtained microsomal protein content was assessed using the bicinchoninic acid protein assay kit (Pierce BCA kit, Thermo Fisher Scientific, Waltham, MA, USA). In each assay, the microsomal protein concentration was calibrated to 100 µg/well. The fluorescence intensities were measured with a fluorometer (Victor X2 2030, Perkin Elmer, Waltham, MA, USA) using λex/em = 406/468 nm for CYP1A2 and for CYP2C19, λex/em = 415/502 nm for CYP2C9, λex/em = 390/468 nm for CYP2D6, and λex/em = 535/587 nm for CYP3A4 assays.

porcine hepatocytes = experiment: IL-6 production, porcine IL-6 ELISA; assay type: cell-based; conditions: S. suis 10^4 CFU/mL in combination with inhibitor, 24 h
Procedure: (§1) After 24 h incubation time, the cell-free supernatants from […], MI-471, and MI-476 exposure were sampled from IPEC-J2 cells and from porcine hepatocytes. The changes in cytokine levels were detected with porcine IL-6 ELISA kits. The manufacturer’s instructions were followed to treat the supernatants and measured by a SpectraMax iD3 microplate reader at 450 nm.

IPEC-J2 cells [5] = experiment: IL-6 production, porcine IL-6 ELISA; assay type: cell-based; conditions: IPEC-J2, S. suis 10^4 CFU/mL in combination with inhibitor, 24 h
Procedure: as §1

[6] = system: Salmonella (S.) enterica (clinical isolate); experiment: MIC measurement (broth microdilution); assay type: cell-based; conditions: source 204/22, 18–24 h at 37 °C
Description: Bacterial strains used in this study were as follows: S. suis serotype 2 (ATCC 958242) Staphylococcus (S.) aureus (ATCC 10832), Escherichia (E.) coli (ATCC 11775), Pseudomonas (P.) aeruginosa (ATCC 27853), Pasteurella (P.) multocida (clinical isolate), Burkholderia (B.) cepacia (clinical isolate), Salmonella (S.) enterica (clinical isolate), and Enterococcus (E.) faecalis (clinical isolate). Of the clinical isolates used in this study, P. multocida is of porcine origin, B. cepacia is of human origin, and S. enterica and E. faecalis are of poultry origin. The bacterial strains were stored in the Microbiology Laboratory of the University of Veterinary Medicine, Budapest, at a temperature of −80 °C. Bacterial strains were inoculated the day before the test in 5 mL of Cation-Adjusted Mueller–Hinton Broth (CAMHB) and incubated for 18–24 h at 37 °C. The initial inoculum concentration used for the MIC assay was 5 × 10^5/mL. All wells except the first column of the working plates were filled with 90 µL CAMHB. A stock solution of inhibitors at 800 µM was then prepared, 180 µL of which was measured into the first column of plates and used to prepare a 2-based dilution on 96-well plates. After the 10th column, the tips were discarded with the 90 µL excess solution so that each column contained 90 µL of solution. Each bacterial strain was tested in a single row on the working plates. A bacterial suspension diluted to 25× was prepared on an auxiliary plate for bacterial inoculation by loading 240 µL of TSB per column of plates and adding 10–10 µL of bacterial strain suspension per well. In the next step, the isolated bacterial strains were inoculated onto the plates. Starting from column 11 (positive control) of the plates containing dilution row 2, 10 µL of bacterial suspension was added to each well, working backward. Column 11 served as a positive control (containing only bacterial suspension and broth), while column 12 served as a negative control (containing only broth). The microplates were then incubated at 37 °C for 18–24 h, and the MIC values were assessed in comparison to positive controls.

[7] = system: Pasteurella (P.) multocida (clinical isolate); experiment: MIC measurement (broth microdilution); assay type: cell-based; conditions: source 380/22, 18–24 h at 37 °C
[8] = system: Burkholderia (B.) cepacia (clinical isolate); experiment: MIC measurement (broth microdilution); assay type: cell-based; conditions: B. cepacia, source 20-10299; 18–24 h at 37 °C; read-out: MIC
IPEC-J2 cells [9] = experiment: EC H2O2 production, Amplex red method; assay type: cell-based, porcine; conditions: 24 h
Procedure: For oxidative status measurements, inhibitors MI-432, MI-471, or MI-476 were used at 50 µM in the absence and presence of S. suis for 24 h in IPEC-J2 cells and in primary porcine hepatocytes on 24-well plates. An Amplex red hydrogen peroxide assay kit was used to monitor EC hydrogen peroxide (H₂O₂) production in IPEC-J2 cells and in hepatocytes. Following the manufacturer’s instructions, cell-free supernatants were collected and mixed with the Amplex red working solution (in a ratio of 1:1). A Victor X2 2030 fluorometer was used to detect fluorescence intensity at wavelengths 530 nm and 590 nm for excitation and emission, respectively.

[10] = system: Escherichia (E.) coli (ATCC 11775); experiment: MIC measurement (broth microdilution); assay type: cell-based; conditions: source ATCC, 18–24 h at 37 °C
S. suis serotype 2 = experiment: MIC measurement (broth microdilution); assay type: cell-based, Streptococcus suis; conditions: source 672/22, 18–24 h at 37 °C
[11] = IPEC-J2, S. suis 10^4 CFU/mL in combination with inhibitor 50 µM

SMILES	MIC [1]	MIC [2]	MIC [3]	cell viability (IPEC-J2 cells [4])	CYP2C19 activity (CYP2C19)	IL-6 levels (porcine hepatocytes)	IL-6 levels (IPEC-J2 cells [5])	MIC [6]	MIC [7]	MIC [8]	EC H2O2 production (IPEC-J2 cells [9]; [11])	EC H2O2 production (IPEC-J2 cells [9]; IPEC-J2, inhibitor alone 50 µM)	MIC [10]	MIC (S. suis serotype 2; Streptococcus suis)	MIC (S. suis serotype 2)
N=C(N)c1cccc(C[C@H](NS(=O)(=O)c2cccc(-c3ccc(Cl)cc3Cl)c2)C(=O)N2CCC(N)CC2)c1 [MI-471]	> 800 µM	> 800 µM	100 µM (≈ 57.5 µg/mL)	did not show any negative effect on cell viability; also recorded: effectively suppressed	No significant inhibitory effects	significant anti-inflammatory effects	significant anti-inflammatory effects	> 800 µM	50 µM (≈ 28.7 µg/mL)	400 µM (≈ 230 µg/mL)	significant increase; also recorded: significant elevation in H2O2 levels	unchanged H₂O₂ production	> 800 µM	3 µM (≈ 1.72 µg/mL)	3.125 µM (≈ 1.8 µg/mL)
N=C(N)c1cccc(C[C@H](NS(=O)(=O)c2cccc(-c3ccc(Cl)cc3Cl)c2)C(=O)N2CCC(CN)CC2)c1 [MI-476]	> 800 µM	> 800 µM	100 µM (≈ 58.9 µg/mL)	did not show any negative effect on cell viability; also recorded: effectively suppressed	No significant inhibitory effects	significant anti-inflammatory effects	significant anti-inflammatory effects	> 800 µM	50 µM (≈ 29.4 µg/mL)	400 µM (≈ 235 µg/mL)	unchanged H₂O₂ production; also recorded: antioxidant properties	unchanged H₂O₂ production	> 800 µM	6 µM (≈ 3.53 µg/mL)	6.25 µM (≈ 3.68 µg/mL)
